Details: 101.33 kPa, Liquid; for speed of sound: Pulse-echo method; for mass density: Vibrating tube method

CCCC(=O)[O-].C[NH2+]CCO [N-methyl-2-hydroxyethylammonium butanoate]
Details	mass density [kg/m3]	speed of sound [m/s]	viscosity [mPa·s]
308.15 K	1032.53	1583.1	162.8
308.4 K	1032.37	1582.3	–
308.65 K	1032.2	1581.5	–
308.9 K	1032.03	1580.7	–
309.15 K	1031.86	1580	–
309.4 K	1031.69	1579.2	–
309.65 K	1031.52	1578.4	–
309.9 K	1031.35	1577.6	–
310.15 K	1031.18	1576.8	–
310.4 K	1031.01	1576	–
310.65 K	1030.85	1575.3	141.4
310.91 K	1030.68	1574.5	–
311.16 K	1030.51	1573.7	–
311.4 K	1030.34	1572.9	–
311.65 K	1030.17	1572.2	–
311.91 K	1030	1571.4	–
312.16 K	1029.83	1570.6	–
312.41 K	1029.65	1569.8	–
312.65 K	–	–	127.1
312.66 K	1029.49	1569	–
312.91 K	1029.32	1568.3	–
313.16 K	1029.14	1567.5	–
313.4 K	1028.97	1566.7	–
313.66 K	1028.8	1565.9	–
313.9 K	1028.64	1565.2	–
314.15 K	1028.46	1564.4	–
314.4 K	1028.29	1563.6	–
314.65 K	1028.12	1562.9	–
314.9 K	1027.95	1562.1	–
315.15 K	1027.78	1561.3	107.78
315.41 K	1027.61	1560.5	–
315.65 K	1027.43	1559.8	–
315.91 K	1027.26	1559	–
316.16 K	1027.09	1558.2	–
316.41 K	1026.92	1557.5	–
316.66 K	1026.75	1556.7	–
316.91 K	1026.58	1555.9	–
317.16 K	1026.41	1555.2	–
317.4 K	1026.23	1554.3	–
317.66 K	1026.06	1553.4	–
317.91 K	1025.89	1552.6	–
318.15 K	–	–	93.33
318.16 K	1025.72	1551.9	–
318.41 K	1025.55	1551.1	–
318.65 K	1025.37	1550.3	–
318.9 K	1025.2	1549.5	–
319.16 K	1025.03	1548.7	–
319.41 K	1024.86	1548	–
319.65 K	1024.69	1547.2	–
319.91 K	1024.51	1546.4	–
320.15 K	–	–	79.57
320.16 K	1024.34	1545.6	–
320.41 K	1024.17	1544.8	–
320.65 K	1024	1544	–
320.91 K	1023.82	1543.3	–
321.15 K	1023.65	1542.5	–
321.41 K	1023.47	1541.7	–
321.66 K	1023.3	1540.9	–
321.9 K	1023.13	1540.1	–
322.15 K	1022.96	1539.3	–
322.41 K	1022.78	1538.6	–
322.65 K	1022.61	1537.8	–
322.91 K	1022.43	1537	–
323.15 K	–	–	71.53
323.16 K	1022.26	1536.2	–
323.41 K	1022.08	1535.4	–
323.65 K	1021.91	1534.7	–
323.91 K	1021.74	1533.9	–
324.16 K	1021.56	1533.1	–
324.41 K	1021.39	1532.3	–
324.65 K	1021.22	1531.5	–
324.9 K	1021.04	1530.8	–
325.16 K	1020.87	1530	–
325.4 K	1020.69	1529.2	–
325.66 K	1020.52	1528.4	–
325.9 K	1020.35	1527.7	–
326.16 K	1020.17	1526.9	–
326.41 K	1019.99	1526.1	–
326.66 K	1019.82	1525.3	–
326.9 K	1019.65	1524.5	–
327.16 K	1019.47	1523.7	–
327.4 K	1019.29	1522.9	–
327.66 K	1019.12	1522.2	–
327.9 K	1018.95	1521.4	–
328.15 K	1018.77	1520.6	–
328.41 K	1018.6	1519.8	–
328.66 K	1018.42	1519	–
328.9 K	1018.25	1518.2	–
329.16 K	1018.07	1517.4	–
329.4 K	1017.9	1516.6	–
329.65 K	1017.72	1515.9	–
329.9 K	1017.54	1515.1	–
330.16 K	1017.37	1514.3	–
330.41 K	1017.19	1513.5	–
330.66 K	1017.01	1512.7	–
330.91 K	1016.84	1511.9	–
331.16 K	1016.66	1511.1	–
331.41 K	1016.48	1510.3	–
331.66 K	1016.3	1509.6	–
331.91 K	1016.13	1508.8	–
332.16 K	1015.96	1508	–
332.41 K	1015.78	1507.2	–
332.66 K	1015.6	1506.4	–
332.91 K	1015.43	1505.6	–
333.16 K	1015.25	1504.9	–
333.41 K	1015.07	1504.1	–
333.66 K	1014.89	1503.3	–
333.91 K	1014.72	1502.5	–
334.16 K	1014.54	1501.7	–
334.41 K	1014.36	1500.9	–
334.66 K	1014.18	1500.2	–
334.91 K	1014.01	1499.4	–
335.16 K	1013.83	1498.6	–
335.41 K	1013.65	1497.8	–
335.66 K	1013.47	1497	–
335.91 K	1013.3	1496.2	–
336.16 K	1013.12	1495.4	–
336.41 K	1012.94	1494.7	–
336.66 K	1012.76	1493.9	–
336.9 K	1012.58	1493.1	–
337.16 K	1012.4	1492.3	–
337.4 K	1012.22	1491.5	–
337.66 K	1012.04	1490.8	–
337.9 K	1011.86	1490	–
338.15 K	1011.69	1489.3	–

From the NIST ThermoML archive (doi:10.1021/je900550v)
